# Laboratory results taken from PubChem BioAssay (NCI).
# Several values for one entry are separate records, joined by “and”; a condition that tells them apart may be missing. Equal values may be shown once.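 Interpolation was linear, between the two tested concentrations surrounding the appropriate level; five concentrations were tested over 48 hours in 96-well plates. GI50: concentration for 50% inhibition of growth. TGI is the concentration that stops growth completely.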
# Columns and labels:
# Assay in all cases: DTP human tumour cell line panel, 48 h
# NCI-H226 lung = tested on: NCI-H226 lung
# CAKI-1 renal = tested on: CAKI-1 renal
# SF-295 CNS = tested on: SF-295 CNS
# OVCAR-4 ovarian = tested on: OVCAR-4 ovarian
# NCI-H522 lung = tested on: NCI-H522 lung
# UACC-62 melanoma = tested on: UACC-62 melanoma
# SK-OV-3 ovarian = tested on: SK-OV-3 ovarian
# SR leukemia = tested on: SR leukemia
# PC-3 prostate = tested on: PC-3 prostate
# HCT-15 colon = tested on: HCT-15 colon
# MOLT-4 leukemia = tested on: MOLT-4 leukemia
# A549 NSCLC = tested on: A549 NSCLC
# SK-MEL-5 melanoma = tested on: SK-MEL-5 melanoma
# HCC-2998 colon = tested on: HCC-2998 colon
# RPMI-8226 leukemia = tested on: RPMI-8226 leukemia
# ACHN renal = tested on: ACHN renal
# MDA-MB-231 breast = tested on: MDA-MB-231 breast
# SNB-19 CNS = tested on: SNB-19 CNS
# SF-539 CNS = tested on: SF-539 CNS
# SNB-75 CNS = tested on: SNB-75 CNS
# 786-0 renal = tested on: 786-0 renal
# SW-620 colon = tested on: SW-620 colon
# T-47D breast = tested on: T-47D breast
# UACC-257 melanoma = tested on: UACC-257 melanoma
# A498 renal = tested on: A498 renal
# MDA-MB-435 = tested on: MDA-MB-435
# IGROV1 ovarian = tested on: IGROV1 ovarian
# COLO 205 colon = tested on: COLO 205 colon
# K-562 leukemia = tested on: K-562 leukemia
# TK-10 renal = tested on: TK-10 renal
# SF-268 CNS = tested on: SF-268 CNS
# U251 CNS = tested on: U251 CNS
# NCI-H460 lung = tested on: NCI-H460 lung
# DU-145 prostate = tested on: DU-145 prostate
# HL-60(TB) leukemia = tested on: HL-60(TB) leukemia
# SK-MEL-2 melanoma = tested on: SK-MEL-2 melanoma
# NCI-H23 lung = tested on: NCI-H23 lung
# CCRF-CEM leukemia = tested on: CCRF-CEM leukemia
# OVCAR-3 ovarian = tested on: OVCAR-3 ovarian
# NCI/ADR-RES ovarian = tested on: NCI/ADR-RES ovarian
# HT29 colon = tested on: HT29 colon
# MCF7 breast = tested on: MCF7 breast
# OVCAR-5 ovarian = tested on: OVCAR-5 ovarian
# RXF 393 renal = tested on: RXF 393 renal
# LOX IMVI melanoma = tested on: LOX IMVI melanoma
# BT-549 breast = tested on: BT-549 breast
# UO-31 renal = tested on: UO-31 renal
# SN12C renal = tested on: SN12C renal
# HCT-116 colon = tested on: HCT-116 colon
# HS 578T breast = tested on: HS 578T breast
# OVCAR-8 ovarian = tested on: OVCAR-8 ovarian
# M14 melanoma = tested on: M14 melanoma
# SK-MEL-28 melanoma = tested on: SK-MEL-28 melanoma
# EKVX NSCLC = tested on: EKVX NSCLC
# HOP-62 NSCLC = tested on: HOP-62 NSCLC
# MALME-3M melanoma = tested on: MALME-3M melanoma
# HOP-92 NSCLC = tested on: HOP-92 NSCLC
# KM12 colon = tested on: KM12 colon
compound,measurement,setting,value
COc1cc2nccc(Oc3ccc(NC(=O)C4(C(=O)Nc5ccc(F)cc5)CC4)cc3)c2cc1OC,GI50,NCI-H226 lung,2.29 µM and 1.7 µM
same,TGI,NCI-H226 lung,> 10 µM and 5.52 µM
same,GI50,CAKI-1 renal,5.87 µM and 3.61 µM
same,TGI,CAKI-1 renal,> 10 µM and 40.9 µM
same,GI50,SF-295 CNS,0.406 µM and 0.289 µM
same,TGI,SF-295 CNS,> 10 µM and 4.95 µM
same,GI50,OVCAR-4 ovarian,> 10 µM and 3.79 µM
same,TGI,OVCAR-4 ovarian,> 62.6 µM
same,GI50,NCI-H522 lung,> 10 µM and 4.28 µM
same,TGI,NCI-H522 lung,> 45.3 µM
same,GI50,UACC-62 melanoma,4.74 µM and 1.97 µM
same,TGI,UACC-62 melanoma,> 10 µM and 32.3 µM
same,GI50,SK-OV-3 ovarian,> 10 µM and 5.83 µM
same,TGI,SK-OV-3 ovarian,> 10 µM and 42.3 µM
same,GI50,SR leukemia,> 10 µM and 2.21 µM
same,TGI,SR leukemia,> 23.7 µM
same,GI50,PC-3 prostate,> 10 µM and 3.42 µM
same,TGI,PC-3 prostate,> 100 µM
same,GI50,HCT-15 colon,> 10 µM and 3.94 µM
same,TGI,HCT-15 colon,> 100 µM
same,GI50,MOLT-4 leukemia,> 10 µM and 3.44 µM
same,TGI,MOLT-4 leukemia,> 59.1 µM
same,GI50,A549 NSCLC,> 10 µM and 3.55 µM
same,TGI,A549 NSCLC,> 61.4 µM
same,GI50,SK-MEL-5 melanoma,> 10 µM and 4.66 µM
same,TGI,SK-MEL-5 melanoma,> 100 µM
same,GI50,HCC-2998 colon,> 10 µM and 6.29 µM
same,TGI,HCC-2998 colon,> 100 µM
same,GI50,RPMI-8226 leukemia,> 10 µM and 4.09 µM
same,TGI,RPMI-8226 leukemia,> 57.7 µM
same,GI50,ACHN renal,> 10 µM and 3.88 µM
same,TGI,ACHN renal,> 10 µM and 46.3 µM
same,GI50,MDA-MB-231 breast,> 10 µM and 3.1 µM
same,TGI,MDA-MB-231 breast,> 40.6 µM
same,GI50,SNB-19 CNS,> 10 µM and 7.69 µM
same,TGI,SNB-19 CNS,> 100 µM
same,GI50,SF-539 CNS,1.13 µM and 1.42 µM
same,TGI,SF-539 CNS,> 10 µM and 12.2 µM
same,GI50,SNB-75 CNS,0.27 µM
same,TGI,SNB-75 CNS,8.14 µM
same,GI50,786-0 renal,> 10 µM and 5.52 µM
same,TGI,786-0 renal,> 54.9 µM
same,GI50,SW-620 colon,9.09 µM and 2.38 µM
same,TGI,SW-620 colon,> 34.5 µM
same,GI50,T-47D breast,> 10 µM and 4.36 µM
same,TGI,T-47D breast,> 100 µM
same,GI50,UACC-257 melanoma,> 10 µM and 4.92 µM
same,TGI,UACC-257 melanoma,> 74.7 µM
same,GI50,A498 renal,1.2 µM and 0.429 µM
same,TGI,A498 renal,> 10 µM and 3.43 µM
same,GI50,MDA-MB-435,7.54 µM and 2.67 µM
same,TGI,MDA-MB-435,> 10 µM and 21.2 µM
same,GI50,IGROV1 ovarian,4.51 µM and 2.59 µM
same,TGI,IGROV1 ovarian,> 31 µM
same,GI50,COLO 205 colon,6 µM and 2.1 µM
same,TGI,COLO 205 colon,> 10 µM and 4.63 µM
same,GI50,K-562 leukemia,2.15 µM and 0.281 µM
same,TGI,K-562 leukemia,> 10 µM and 2.82 µM
same,GI50,TK-10 renal,> 10 µM and 3.76 µM
same,TGI,TK-10 renal,> 10 µM and 39.5 µM
same,GI50,SF-268 CNS,> 10 µM and 4.54 µM
same,TGI,SF-268 CNS,> 100 µM
same,GI50,U251 CNS,> 10 µM and 4.31 µM
same,TGI,U251 CNS,> 100 µM
same,GI50,NCI-H460 lung,> 10 µM and 3.27 µM
same,TGI,NCI-H460 lung,> 94.6 µM
same,GI50,DU-145 prostate,> 10 µM and 5.47 µM
same,TGI,DU-145 prostate,> 100 µM
same,GI50,HL-60(TB) leukemia,> 10 µM and 3.87 µM
same,TGI,HL-60(TB) leukemia,> 10 µM and 21.6 µM
same,GI50,SK-MEL-2 melanoma,> 10 µM and 7.13 µM
same,TGI,SK-MEL-2 melanoma,> 10 µM and 27.9 µM
same,GI50,NCI-H23 lung,> 10 µM and 2.83 µM
same,TGI,NCI-H23 lung,> 100 µM
same,GI50,CCRF-CEM leukemia,> 10 µM and 3.65 µM
same,TGI,CCRF-CEM leukemia,> 100 µM
same,GI50,OVCAR-3 ovarian,> 10 µM and 6.03 µM
same,TGI,OVCAR-3 ovarian,> 10 µM and 54 µM
same,GI50,NCI/ADR-RES ovarian,> 10 µM and 3.43 µM
same,TGI,NCI/ADR-RES ovarian,> 100 µM
same,GI50,HT29 colon,7.71 µM and 2.74 µM
same,TGI,HT29 colon,> 10 µM and 20.4 µM
same,GI50,MCF7 breast,> 10 µM and 4.06 µM
same,TGI,MCF7 breast,> 54.2 µM
same,GI50,OVCAR-5 ovarian,> 10 µM and 3.5 µM
same,TGI,OVCAR-5 ovarian,> 58.3 µM
same,GI50,RXF 393 renal,> 10 µM and 2.17 µM
same,TGI,RXF 393 renal,> 10 µM and 6.93 µM
same,GI50,LOX IMVI melanoma,6.11 µM and 2.61 µM
same,TGI,LOX IMVI melanoma,> 10 µM and 15.2 µM
same,GI50,BT-549 breast,> 10 µM and 8.8 µM
same,TGI,BT-549 breast,> 10 µM and 72.4 µM
same,GI50,UO-31 renal,4.3 µM and 2.33 µM
same,TGI,UO-31 renal,> 10 µM and 12.7 µM
same,GI50,SN12C renal,3.97 µM and 1.02 µM
same,TGI,SN12C renal,> 54.2 µM
same,GI50,HCT-116 colon,> 10 µM and 3.73 µM
same,TGI,HCT-116 colon,> 41.5 µM
same,GI50,HS 578T breast,0.45 µM and 0.857 µM
same,TGI,HS 578T breast,> 10 µM and 10.8 µM
same,GI50,OVCAR-8 ovarian,> 10 µM and 5.74 µM
same,TGI,OVCAR-8 ovarian,> 100 µM
same,GI50,M14 melanoma,> 10 µM and 2.9 µM
same,TGI,M14 melanoma,> 10 µM and 18.3 µM
same,GI50,SK-MEL-28 melanoma,> 10 µM and 3.74 µM
same,TGI,SK-MEL-28 melanoma,> 79 µM
same,GI50,EKVX NSCLC,> 10 µM and 6.98 µM
same,TGI,EKVX NSCLC,> 10 µM and 97.3 µM
same,GI50,HOP-62 NSCLC,> 10 µM and 5.6 µM
same,TGI,HOP-62 NSCLC,> 45.3 µM
same,GI50,MALME-3M melanoma,> 10 µM and 2.11 µM
same,TGI,MALME-3M melanoma,> 10 µM and 9.17 µM
same,TGI,HOP-92 NSCLC,8.01 µM and 1.46 µM
same,GI50,KM12 colon,0.333 µM and 0.0482 µM
same,TGI,KM12 colon,> 100 µM
